In patent US20200383985A1, “Inhibitors of Protease Activated Receptor-2” (Endosome Therapeutics, Inc., priority 2017, published 2020):

Tests used:
PKC and ERK activity = experiment: FRET assays of compartmentalized PKC and ERK in DRG neurons; format: cell-based, rat
Experimental: To determine whether trypsin causes PAR2-dependent activation of PKC and ERK, which respectively mediate initial and persistent trypsin-induced hyperexcitability of nociceptors, genetically-encoded Förster Resonance Energy Transfer (FRET) biosensors were expressed in neurons. […] Trypsin (10 or 100 nM) activated PKC at the plasma membrane but not in the cytosol (FIG. 4E-G), and activated ERK in the cytosol and nucleus (FIG. 4H-J). The PAR2 antagonist I-343 (10 μM) inhibited trypsin-induced activation of PKC and ERK, whereas the PAR1 antagonist SCH530348 (100 nM) had no effect (FIG. 4F, I). At the end of experiments, neurons were challenged with the positive controls phorbol 12,13-dibutyrate (PDBu) for EKAR biosensors or PDBu plus phosphatase inhibitor mixture-2 for CKAR biosensors, to ensure that the response of the biosensor was not saturated.
DRG were collected from C57BL/6 mice and Sprague-Dawley rats (all levels). DRG were incubated with collagenase IV (2 mg/ml) and dispase II (1 mg/ml) for 30 min (mice) and 45 min (rats) at 37° C. DRG were dispersed by trituration with a fire-polished Pasteur pipette. Dissociated neurons were transfected with mPAR2-GFP (1 μg), the FRET biosensors CytoEKAR, NucEKAR, pmCKAR or CytoCKAR (all […]), or with the BRET biosensors PAR2-RLuc8 (125 ng) and βARR2-FYP (475 ng) using the Lonza 4D-Nucleofector X unit according to the manufacturer's instructions. Neurons were plated on laminin- (0.004 mg/ml) and poly-L-Lysine- (0.1 mg/ml) coated glass coverslips for confocal microscopy, on ViewPlate-96 plates (PerkinElmer) for FRET assays, or on CulturPlates (PerkinElmer) for BRET assays. Neurons were maintained in Dulbecco's modified Eagle medium (DMEM) containing 10% fetal bovine serum (FBS), antibiotic-antimitotic, and N1 supplement for 48 h before study.
Rat DRG neurons expressing FRET biosensors were serum-restricted (0.5% FBS overnight), and equilibrated in HBSS-HEPES (10 mM HEPES, pH 7.4, 30 min, 37° C.). FRET was analyzed using an Operetta CLS High-Content Imaging System (PerkinElmer) or an INCell Analyzer 2000 G E Healthcare Life Sciences). For CFP/YFP emission ratio analysis, cells were sequentially excited using a CFP filter (410-430 nm) with emission measured using YFP (520-560 nm) and CFP (460-500 nm) filters. Cells were imaged at 1 or 2 min intervals. Baseline was measured, neurons were challenged with trypsin (10 or 100 nM) or vehicle, and responses recorded for a further 30 min. Neurons were then challenged with phorbol 12,13-dibutyrate (PDBu, 200 nM, 10 min) for EKAR biosensors or PDBu (200 nM) and phosphatase inhibitor cocktail-2 (SigmaAldrich, 10 min) for CKAR biosensors. Data were analyzed using Harmony 4.1 or Image J 1.51 software. Images taken were aligned, cells were selected based on diameter, and fluorescence intensity was calculated for both FRET and CFP channels. Background intensity was subtracted and the FRET ratio was determined as the change in the FRET/donor (EKAR) or donor/FRET (CKAR) emission ratio relative to the baseline for each cell (F/Fo). Cells with >5% changes in F/F0 after PDBu stimulation were selected for analysis. Neurons were incubated with I-343 (10 μM), SCH530348 (100 nM) or vehicle (30 min, 37° C. preincubation and inclusion throughout).

mice = experiment: Paw inflammation after intraplantar injection (paw thickness, neutrophil infiltration); format: in vivo, mouse; settings: WT mice; for paw thickness after intraplantar protease: calipers
From the text: Proteases may induce pain by activating PAR2 on nociceptors or other cell types. To determine the contribution of PAR2 on nociceptors, mice were bred expressing PAR2 flanked by LoxP sites (Par2^lox/lox) with mice expressing Cre recombinase targeted to nociceptors using the NaV1.8 promoter (Scn10a) (Stirling L. C. et al., Pain 2005, 113(1-2): 27-36). Par2-NaV1.8 mice lacked immunoreactive PAR2 in NaV1.8-positive nociceptors (FIG. 1A). Whereas 31% (20 of 65) of small-diameter (<25 μm) DRG neurons from WT mice responded to trypsin (100 nM) with increased [Ca^2+]i, only 6% (3 of 51) of neurons from Par2-NaV1.8 mice responded (FIGS. 1B, 11A, and 11B). Nociception was assessed by measuring withdrawal responses to stimulation of the plantar surface of the hindpaw with von Frey filaments. […] In Par2-NaV1.8 mice, the initial responses were maintained, but responses after 120 min were diminished. […] Trypsin-induced inflammation was markedly diminished in Par2-NaV1.8 mice.
Mice were acclimatized to the experimental apparatus, room and investigator for 1-2 h on 2 successive days before studies. Investigators were blinded to the test agents. Mice were sedated (5% isoflurane) for intraplantar injections. Dy4a, Dy4 inact, PS2, PS2 inact (all 50 μM) or vehicle (0.2% DMSO in 0.9% NaCl) (10 μl) was injected into the left hindpaw. After 30 min, trypsin (10 or 80 nM), CS (2.5 or 5 μM) or NE (1.2 or 3.9 μM) (all 10 μl) was injected into the same hindpaw. Mechanical nociceptive responses were evaluated by examining paw withdrawal to stimulation of the plantar surface of the hind-paw with calibrated von Frey filaments. von Frey scores were measured in triplicate to establish a baseline for each animal on the day before experiments, and were then measured for up to 4 h after protease administration. To assess edema, paw thickness was measured at the site of injection between the plantar and the dorsal surfaces of the paw using digital calipers. […] Ly6G/Ly6c was detected with goat anti-rat horseradish peroxidase conjugated multimer incubated for 16 min.

[1] = trypsin 10 or 100 nM, rat DRG neurons

Row | Compound | trypsin-induced activation of PKC and ERK (PKC and ERK activity; I-343 10 μM, SCH530348 100 nM) | paw thickness after intraplantar protease (mice) | neutrophil influx into the paw (mice; after 4 h) | ERK activity in the cytosol and nucleus (PKC and ERK activity; [1]) | PKC activity at the plasma membrane (PKC and ERK activity; [1]) | PKC activity in the cytosol (PKC and ERK activity; [1])
1 | Cc1nc(C(=O)N2CCN(C(=O)c3cn4nc(-c5ccc(F)cc5)cc(C(C)(C)C)c4n3)C(C)(C)C2)n[nH]1 [Compound I-343, (8-(tert-butyl)-6-(4-fluorophenyl)imidazo[1,2-b]pyridazin-2-yl)(2,2-dimethyl-4-(5-methyl-1H-1,2,4-triazole-3-carbonyl)piperazin-1-yl)methanone] | inhibited |  |  |  |  | 
2 | NE: protease (elastase) activating PAR2 by biased mechanisms |  | increased paw thickness |  |  |  | 
3 | trypsin |  | increased paw thickness | stimulated an influx of neutrophils | activated | activated | not
